From patent publication US9204640B2, “2-acyloxy-pyrrolin-4-ones” (BAYER INTELLECTUAL PROPERTY GMBH, priority 2011, dated 2015) come the findings set out here.

Type in all cases: in vivo
Assay [1] has as its system Myzus persicae. As to the kind of experiment: Myzus test (MYZUPE spray treatment). The conditions noted are these: application rate 500 g/ha, after 5 days, Chinese cabbage leaf discs. The procedure, abridged: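 Chinese cabbage leaf discs carrying all stages of green peach aphid sprayed with compound diluted in emulsifier-containing water to the desired concentration. Mortality scored as % after 5 days, where 100% means all aphids dead and 0% none.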

For assay [2], the system named is Myzus persicae. As to the kind of experiment: Myzus persicae test; hydroponic treatment (MYZUPE Sys). The conditions noted are these: 20 ppm, 6dat. On the procedure: Myzus Persicae Test; Hydroponic Treatment (MYZUPE Sys)
To produce a suitable preparation of active compound, 1 part by weight of active compound is mixed with the stated amounts of solvent and emulsifier, and the concentrate is diluted with water to the desired concentration.
The active compound preparation is mixed with water. The stated concentration refers to the amount of active compound per volume unit of water (mg/l=ppm). The treated water is filled into vessels containing a pea plant (Pisum sativum), and the plant is the infested with the green peach aphid (Myzus persicae).
After the desired period of time, the kill in % is determined 100% means that all of the aphids have been killed; 0% means that none of the aphids have been killed.

For the next assay, the system named is Digitaria sanguinalis. Kind of assay: Herbicidal post-emergence action, DIGSA. As to conditions: 20 g/ha. The procedure, abridged:
(§1)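 Weeds sown in sandy loam, grown in greenhouse 2–3 weeks and treated post-emergence at one-leaf stage (or BBCH 10–13, 5–10 cm) with WP/EC formulations sprayed at various dosages (600–800 l/ha water, 0.1–0.2% wetting agent). Visual rating after about 3 weeks as % activity versus untreated (100% = dead).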

For the next assay, the system named is Alopecurus myosuroides. As to the kind of experiment: Herbicidal post-emergence action, ALOMY. As to conditions: 20 g/ha. An outline of the steps: as §1

As for `CCOC(=O)OC1=C(c2c(C)cc(I)cc2CC)C(=O)C2(CCC(OC)CC2)N1` (mixture of isomers) [I-b-2], the “effect in % (aphids killed)” value with Myzus persicae [1] was 100%. The “% Activity MYZUPE sys” value with Myzus persicae [2] is 99%. Moreover, in the assay on Digitaria sanguinalis, the “% Activity DIGSA” value amounted to 90%. In the assay on Alopecurus myosuroides, the “% Activity ALOMY” value is given as 90%.
